Reference: patent US9682928B2 (NeuroPro Therapeutics, Inc., priority 2009, dated 2017)
pEC50, pIC50: −log10 of the molar value. Where “and” joins values, the source holds several entries; their conditions need not be identical. Equal values may be shown once. Entries after “also recorded” stand apart in the source; their conditions may differ. Read-outs that look alike come from different tables or passages of the source.

What was measured:
Sprague-Dawley rats = assay: Kainic acid induced seizures in rats; assay type: in vivo, rat; design: key to Seizures Severity Mean ± SD (grade 0 to IV): seizure grade 0 = no response to IV = status epilepticus; details: for change in vivo at 20 µmol/kg / change in vivo at 100 mg/kg: Rattus norvegicus, 2 h; for change in vivo at 100 mg/kg: ip; for Reduction in seizure score / severity: bumetanide 100 mg/kg i.p. (274 umoles/kg); for Reduction in seizure severity / seizure score / Reduction in seizures / seizure activity: kainic acid 15 mg/kg, rat, 20 μmoles/kg (bumetanide 7.3 mg/kg i.p.)
Protocol: Formulation of kainic acid was performed by NTS as a stock solution by reconstituting kainic acid with (100%) saline that was stored at 4° C. Vehicle control received saline solution. […] The research investigators were blinded to the treatment groups.
Solutions were prepared fresh daily just prior to use; dosing of all 10 rats with any given compound occurred on a single day after preparing the dosing solution. […] Unused remaining dosing solutions were stored frozen.
Animals were maintained in a temperature- and light-controlled environment in accord with the principles and procedures of the National Institutes of Health Guidelines for Care and Use of Laboratory Animals. Seizures were induced in adult, male Sprague-Dawley rats (260-300 g) by injection of KA (15 mg/kg, i.p.). In addition, animals were injected with test compounds following kainic acid to determine the effects on protection from epilepsy. Animals were monitored behaviorally for seizures for 2 hours after injection.
Seizure activity was initially characterized as either yes (1) or no (0) within a 2 hour period following injection of KA. A seizure severity grade was assigned based on the maximal response achieved on a scale from 0 to IV as follows: 0, no response; I, single limb clonus and scratching; II, multiple limb clonus and staggering gait; […], limb clonus, tonic extension of limbs and falling; IV, continuous grade III seizures for longer than 30 min (status epilepticus).
The results were expressed as the mean±standard deviation (SD). The significance of difference in the epileptic data was analyzed using a one-way analysis of variance (ANOVA) followed by Fisher's post hoc test. Repeated-measures ANOVA were computed on the monitoring data and the significance of the difference among groups were evaluated by Fisher's post hoc test.
All groups were subjected to kainic acid.
The induction of seizures in rats with kainic acid was determined as either yes seizures (1) or no seizures (0).

[1] = Blood levels in rat following IP administration; assay type: in vivo; details: for Concentration of NTP-2000 (bumetanide) in rat blood: after NTP-2024 100 mg/kg IP
[2] = target: T1, α4β3γ2 GABAA receptor isoform (Homo sapiens, UniProt P18507+P28472+P48169); assay: Whole-cell patch clamp, transfected HEK-293T cells; assay type: cell-based, rat or human
T1 construct: expressed in transfected cells; host or cells: HEK-293T, transient transfection
Protocol: The addition of GABA to […] activates the recombinant expressed GABAA receptors, creating an ion movement through the ion channel in the GABAA receptor. The electrical current generated by the movement of chloride ions into the cells can be quantified.
HEK-293T cells were transiently transfected with rat or human GABAA receptor subunits. Whole-cell patch clamp recording was performed at −50 mV unless otherwise indicated. Test compounds was diluted from a freshly made stock in DMSO, GABA was prepared from a frozen stock. For each experiment GABA or GABA+a test compound was applied for 5 seconds, and the electrical current generated by the movement of chloride ions into the cells was measured and recorded as a trace of current versus time.
Compounds described herein (e.g., NTP-2014) were tested at high and low GABA concentrations against multiple GABAA receptor isoforms (e.g., α1β3γ2, α2β3 γ2, α3β3γ2, α3β3γ2, α4β3γ2, α5β3γ2, α6β3γ2). […] NTP-2014 inhibits the currents in the parasynaptic α4 GABAA receptor isoform in GABAergic interneurons. […]

primate = assay: Acute primate seizure models; details: in vivo
From the text: FIG. 13 depicts epileptiform spikes and bursts generated using software for the automatic quantification epileptiform activity. FIG. 13A depicts after-discharge activity that was elicited by 4 seconds of electrical stimulation to primate sensory cortex. The software developed by Haglund and Hochman (2007) finds the envelope around a burst of spikes and calculates the duration of the burst, the number of spikes within the burst, and the average spike amplitude of all spikes comprising the burst.
FIG. 13B depicts a typical spike generated by an acute bicuculline focus in primate motor cortex. The bicuculline model generates epileptiform activity that is similar to spontaneous interictal spiking in human subjects. Analysis of the data by the software identifies the time of occurrence of each spike and its peak-to-peak amplitude. This software can automatically process entire data sets consisting of hours of recorded data from multiple traces and generate an output of the data. Statistical analysis of data sets from multiple experiments can then be used to analyze the effects of various treatments (e.g., compounds that suppress epliptiform activity). See Haglund and Hochman (2007) “Imaging of Intrinsic Optical Signals in Primate Cortex during Epileptiform Activity.” Epilepsia 48(Suppl. 4): 65-74; See also Haglund and Hochman (Feb. 23, 2005) J. Neurophysiol. 94: 907-918.

[3] = Solubility in dosing vehicle (0.2% HPMC in physiological saline); assay type: physicochemical; details: NTP-2024: 180 mg/kg or 18 mg/ml; NTP-2026: 100 mg/kg or 10 mg/ml
[4] = KA 15 mg/kg i.p., 20 μmoles/kg IP
[5] = KA 15 mg/kg i.p., 20 μmoles/kg IP, 2 hours
[6] = group 11, bumetanide 100 mg/kg (274 umoles/kg)
[7] = 20 μmoles/kg IP, vs DMSO control

T1 sequence (P48169 36-554): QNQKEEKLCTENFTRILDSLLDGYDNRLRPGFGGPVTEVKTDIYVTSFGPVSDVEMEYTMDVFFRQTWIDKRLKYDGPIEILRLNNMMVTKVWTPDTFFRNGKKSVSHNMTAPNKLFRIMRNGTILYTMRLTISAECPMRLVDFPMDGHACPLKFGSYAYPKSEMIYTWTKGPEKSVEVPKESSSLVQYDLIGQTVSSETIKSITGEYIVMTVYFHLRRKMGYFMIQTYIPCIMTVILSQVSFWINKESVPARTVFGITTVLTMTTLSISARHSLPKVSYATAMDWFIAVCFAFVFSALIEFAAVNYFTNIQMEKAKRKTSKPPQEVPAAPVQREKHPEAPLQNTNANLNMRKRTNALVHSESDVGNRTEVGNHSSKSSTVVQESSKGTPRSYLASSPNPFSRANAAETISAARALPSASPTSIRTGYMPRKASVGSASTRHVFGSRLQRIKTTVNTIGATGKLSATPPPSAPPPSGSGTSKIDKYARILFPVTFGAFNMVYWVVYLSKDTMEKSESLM
T1 sequence (P28472 26-473): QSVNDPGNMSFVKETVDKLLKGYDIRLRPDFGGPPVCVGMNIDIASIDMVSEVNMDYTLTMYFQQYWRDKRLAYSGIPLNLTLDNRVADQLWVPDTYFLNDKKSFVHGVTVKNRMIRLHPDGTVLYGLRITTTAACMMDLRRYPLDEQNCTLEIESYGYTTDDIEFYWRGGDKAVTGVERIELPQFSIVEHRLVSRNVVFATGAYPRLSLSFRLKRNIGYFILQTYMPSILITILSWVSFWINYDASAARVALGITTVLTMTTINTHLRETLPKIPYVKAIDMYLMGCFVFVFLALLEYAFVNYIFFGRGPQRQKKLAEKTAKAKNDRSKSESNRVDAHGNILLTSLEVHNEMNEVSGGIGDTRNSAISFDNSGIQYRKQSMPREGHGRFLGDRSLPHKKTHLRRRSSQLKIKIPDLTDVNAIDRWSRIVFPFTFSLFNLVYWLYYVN
T1 sequence (P18507 40-475): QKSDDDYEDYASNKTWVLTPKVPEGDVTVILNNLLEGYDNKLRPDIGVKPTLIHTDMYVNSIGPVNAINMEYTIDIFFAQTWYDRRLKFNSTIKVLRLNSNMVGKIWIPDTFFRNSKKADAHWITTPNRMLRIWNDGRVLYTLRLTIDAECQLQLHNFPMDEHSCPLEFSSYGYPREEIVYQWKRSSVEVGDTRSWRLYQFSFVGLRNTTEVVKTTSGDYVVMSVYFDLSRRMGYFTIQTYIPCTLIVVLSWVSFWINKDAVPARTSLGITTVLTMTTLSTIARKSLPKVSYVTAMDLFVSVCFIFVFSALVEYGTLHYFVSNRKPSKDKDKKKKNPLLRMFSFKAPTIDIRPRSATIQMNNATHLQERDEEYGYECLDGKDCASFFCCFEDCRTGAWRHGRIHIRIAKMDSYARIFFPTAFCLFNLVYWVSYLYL

Structure (SMILES): CCCCNc1cc(C(=O)O)cc(S(N)(=O)=O)c1Oc1ccccc1 [Bumetanide, reference compound]
- Seizures Severity Mean ± SD (grade 0 to IV) (Sprague-Dawley rats; [4]): 0.7000 ± 0.8233
- Seizures Mean ± SD (1 = yes, 0 = no) (Sprague-Dawley rats; [5]): 0.5000 ± 0.5270
- change in vivo at 20 µmol/kg (Sprague-Dawley rats; 20 μmoles/kg IP, vs DMSO control, read-out: Percent reduction in Seizures): -44.4%
- change in vivo at 20 µmol/kg (Sprague-Dawley rats; 20 μmoles/kg IP, vs DMSO control, read-out: Percent reduction in Seizures Severity): -70.8%
- change in vivo at 100 mg/kg (Sprague-Dawley rats; read-out: Percent reduction in Seizures): -88.9%
- change in vivo at 100 mg/kg (Sprague-Dawley rats; read-out: Percent reduction in Seizures Severity): -95.8%
- Reduction in seizure score / severity (Sprague-Dawley rats): seizures (S); 96%
- Reduction in seizure score / severity (Sprague-Dawley rats; listed as bumetanide): 95.8%
- Reduction in seizures (Sprague-Dawley rats; bumetanide 100 mg/kg i.p., listed as bumetanide): 88.9%
- Seizures Mean ± SD (1 = yes, 0 = no) (Sprague-Dawley rats; [6]): 0.1000 ± 0.3162
- Seizures Severity Mean ± SD (grade 0 to IV) (Sprague-Dawley rats; [6]): 0.1000 ± 0.3162
- Reduction in seizure severity / seizure score (Sprague-Dawley rats): seizures (NS); 71%
- Reduction in seizures / seizure activity (Sprague-Dawley rats): 44% reduction in
- Reduction in seizure severity / seizure score (Sprague-Dawley rats; listed as bumetanide): 70.8%
- Effect of inhibitor pre-treatment on exposures and half-life ([1]; rats): with inhibitor increased bumetanide exposures and half-life;
- Effect on α4β3γ2 GABAA receptor isoform ([2]; up to a concentration of 100 μM, 100 μM GABA): no effect; also recorded: no-effect
- Suppression of epileptiform activity (primate): significantly more than furosemide

Structure (SMILES): CCCCN(CCCC)c1cc(C(=O)O)cc(S(N)(=O)=O)c1Oc1ccccc1 [NTP-2014, 3-Aminosulfonyl-5-N,N-dibutylamino-4-phenoxybenzoic acid]
- pIC50 ([2]; 100 μM GABA (FIG. 42), read-out: IC50, inhibition of α4β3γ2 GABAA receptor isoform): 4.80
- Effect on currents, α4 GABAA receptor isoform ([2]; 1, 10, 100 μM GABA): inhibiting currents; also recorded: inhibited by NTP-2014 at higher GABA concentrations, but unaffected at lower GABA concentrations; also recorded: inhibition of currents
- pEC50 ([2]; FIG. 41C, read-out: EC50 in α4 containing GABAA receptor isoforms): 4.69
- pIC50 ([2]; read-out: IC50, receptors containing the α4 subunit): 4.52 to 5.00

Structure (SMILES): CCCCNc1cc(C(=O)NN2CCOCC2)cc(S(N)(=O)=O)c1Oc1ccccc1 [NTP-2024, N-Morpholinyl 3-Aminosulfonyl-5-N-butylamino-4-phenoxybenzamide]
- Percent reduction in Seizures (Sprague-Dawley rats; [7]): −88.9%
- Percent reduction in Seizures Severity (Sprague-Dawley rats; [7]): −95.8%
- Seizures Severity Mean ± SD (grade 0 to IV) (Sprague-Dawley rats; [4]): 0.1000 ± 0.3162
- Seizures Mean ± SD (1 = yes, 0 = no) (Sprague-Dawley rats; [5]): 0.1000 ± 0.3162
- Reduction in seizure severity / seizure score (Sprague-Dawley rats): 96% reduction in
- Reduction in seizures / seizure activity (Sprague-Dawley rats): 89% reduction in
- Concentration of NTP-2024 in rat blood ([1]; NTP-2024 100 mg/kg IP, PBx pretreated, 15 m): 3939.86 ng/mL and 4358.32 ng/mL and 6418.34 ng/mL
- Concentration of NTP-2000 (bumetanide) in rat blood ([1]; PBx pretreated, 5 m): 4.155 ng/mL and 3.804 ng/mL and 3.493 ng/mL
- Concentration of NTP-2000 (bumetanide) in rat blood ([1]; PBx pretreated, 30 m): 13.3456 ng/mL and 10.0076 ng/mL and 8.433 ng/mL
- Concentration of NTP-2000 (bumetanide) in rat blood ([1]; PBx pretreated, 1 h): 12.2513 ng/mL and 9.158 ng/mL and 8.065 ng/mL
- Concentration of NTP-2000 (bumetanide) in rat blood ([1]; PBx pretreated, 2 h): 15.0994 ng/mL and 8.16 ng/mL and 8.949 ng/mL
- Degradation to bumetanide in the blood ([1]; i.p., rats): does not readily degrade to bumetanide
- Concentrations in blood and in brain tissue ([1]; rats pretreated with inhibitor): Rats pretreated with inhibitor demonstrated high concentrations
- Suppression of epileptiform activity (primate): efficacious in suppressing epileptiform activity
- Solubility issues at the highest dose tested [3]: Mild solubility issues

Structure (SMILES): CCCCNc1cc(C(=O)N(C)CCCN(C)C)cc(S(N)(=O)=O)c1Oc1ccccc1 [NTP-2026, N-(3-(Dimethylamino)propyl)-N-methyl 3-Aminosulfonyl-5-N-butylamino-4-phenoxybenzamide]
- Solubility issues at the highest dose tested [3]: Significant solubility issues
